Reference: publication PMC11313180 (International Journal of Molecular Sciences, 2024)
Where two headings read alike, the source gives them in different places.

Experiments:
MDA-MB-231 = experiment: MTT cell viability assay, MDA-MB-231; type: cell-based, human; settings: 120 h; IC50 ± SEM; read-out: IC50 MDA-MB-231, 120 h MTT assay
Procedure: MTT assays were performed as previously described. Cell numbers plated differed depending on each incubation time: MDA-MB-231 5000 c/w, MCF-7 5000 c/w (72 h) and 3000 c/w (120 h), T-47D 10,000 c/w (72 h) and 5000 c/w /120 h). After incubation time, medium was replaced by MTT (solution of 5 mg/mL 3-(4,5-dimethylthiazol-2-yl)-2,5-diphenyl-tetrazoliumbromidin in phosphate buffered saline, Serva, Heidelberg, Germany). After 10 min (MCF-7), 20 min (MDA-MB-231), and 30 min (T47D) and dissolving in DMSO (VWR, Langenfeld, Germany), absorbance was measured at 544 nm and 690 nm in a FLUOstar microplate reader (BMG LabTech, Offenburg, Germany).

HDAC6 [1] = target: T1, HDAC6 (Homo sapiens, UniProt Q9UBN7); experiment: Enzyme HDAC inhibition assay, HDAC6
T1 sequence (Q9UBN7 1-1215): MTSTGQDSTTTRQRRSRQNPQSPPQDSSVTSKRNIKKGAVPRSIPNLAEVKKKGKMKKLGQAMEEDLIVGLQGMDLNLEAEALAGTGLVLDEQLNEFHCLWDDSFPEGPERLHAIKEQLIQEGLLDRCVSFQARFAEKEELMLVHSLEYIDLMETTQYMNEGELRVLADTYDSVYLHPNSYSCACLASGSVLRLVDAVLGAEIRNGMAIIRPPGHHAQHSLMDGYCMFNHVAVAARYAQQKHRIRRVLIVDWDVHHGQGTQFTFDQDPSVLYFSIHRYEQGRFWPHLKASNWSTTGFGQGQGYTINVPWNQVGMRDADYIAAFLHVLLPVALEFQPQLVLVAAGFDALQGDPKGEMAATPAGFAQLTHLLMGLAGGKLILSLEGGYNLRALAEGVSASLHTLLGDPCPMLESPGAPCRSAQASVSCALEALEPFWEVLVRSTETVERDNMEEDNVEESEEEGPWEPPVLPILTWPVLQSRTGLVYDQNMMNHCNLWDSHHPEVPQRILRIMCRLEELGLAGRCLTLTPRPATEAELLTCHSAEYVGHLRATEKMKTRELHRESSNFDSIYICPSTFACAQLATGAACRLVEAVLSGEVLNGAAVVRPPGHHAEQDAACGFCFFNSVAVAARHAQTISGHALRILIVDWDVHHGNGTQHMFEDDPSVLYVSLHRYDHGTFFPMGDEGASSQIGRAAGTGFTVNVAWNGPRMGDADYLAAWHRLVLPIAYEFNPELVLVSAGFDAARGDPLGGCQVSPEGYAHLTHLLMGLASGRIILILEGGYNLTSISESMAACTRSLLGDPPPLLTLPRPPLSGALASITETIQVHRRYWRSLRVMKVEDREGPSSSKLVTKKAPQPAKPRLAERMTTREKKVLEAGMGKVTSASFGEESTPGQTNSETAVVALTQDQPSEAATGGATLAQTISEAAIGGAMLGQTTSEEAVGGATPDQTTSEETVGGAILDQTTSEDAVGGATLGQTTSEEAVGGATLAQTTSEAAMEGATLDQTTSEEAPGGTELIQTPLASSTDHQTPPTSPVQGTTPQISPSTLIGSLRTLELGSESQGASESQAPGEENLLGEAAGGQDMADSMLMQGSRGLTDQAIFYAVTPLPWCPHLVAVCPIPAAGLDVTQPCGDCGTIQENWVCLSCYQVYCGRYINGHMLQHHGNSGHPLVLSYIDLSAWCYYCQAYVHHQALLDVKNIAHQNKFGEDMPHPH
Excerpt: (§4) All human recombinant enzymes were purchased from Reaction Biology Corp. (Malvern, PA, USA).

HDAC2 [2] = target: HDAC2 (Homo sapiens, UniProt Q92769); experiment: Enzyme HDAC inhibition assay, HDAC2
Excerpt: as §4

HDAC6 [3] = settings: ref [21], cited from earlier work
[4] = test system: class I/IIb HDAC activity in T47D cells; experiment: cells; type: cell-based, human; settings: 48 h, read-out: IC50 Cellular HDAC Assay
Procedure: The cellular HDAC assay was performed based on an assay published by Heltweg and Jung and Ciossek et al.. Breast cancer cell line T-47D (12,000 c/w) was seeded in 96-well tissue culture plates (Corning, Kaiserslautern, Germany) in a total volume of 90 µL of culture medium. After 24 h, cells were incubated 48 h with increasing concentrations of a-lipoic acid. The reaction was started by adding 10 µL of 3 mM Boc-Lys(Ac)-AMC (Bachem, Bubensdorf, Switzerland) and again incubated for 3 h under cell culture conditions. […]

HDAC4 = target: T2, HDAC4 (Homo sapiens, UniProt P56524); experiment: Enzyme HDAC inhibition assay, HDAC4; type: biochemical; settings: IC50 ± SEM; three experiments in duplicates; read-out: IC50 HDAC 4
T2 construct: purchased Reaction Biology Corp. KDA-21-279
Excerpt: as §4

T47D [5] = experiment: MTT cell viability assay, T47D; type: cell-based, human; settings: 120 h; IC50 ± SEM; read-out: IC50 T-47D, 120 h MTT assay
Procedure: (§1) MTT assays were performed as previously described. […] After incubation time, medium was replaced by MTT (solution of 5 mg/mL 3-(4,5-dimethylthiazol-2-yl)-2,5-diphenyl-tetrazoliumbromidin in phosphate buffered saline, Serva, Heidelberg, Germany).

HDAC2 [6] = settings: obtained by fitting Lechner et al. source data to a sigmoidal concentration–effect model; ref [21]; read-out: IC50 HDAC 2, Lechner et al.; cited from earlier work
MCF-7 [7] = experiment: MTT cell viability assay, MCF-7; type: cell-based, human; settings: 120 h; IC50 ± SEM; read-out: IC50 MCF-7, 120 h MTT assay
Procedure: as §1

HDAC8 [8] = settings: ref [21], cited from earlier work; for IC50: obtained by fitting Lechner et al. source data to a sigmoidal concentration–effect model, read-out: IC50 HDAC 8, Lechner et al.
HDAC8 [9] = target: T3, HDAC8 (Homo sapiens, UniProt Q9BY41); experiment: Enzyme HDAC inhibition assay, HDAC8
T3 sequence (Q9BY41 1-377): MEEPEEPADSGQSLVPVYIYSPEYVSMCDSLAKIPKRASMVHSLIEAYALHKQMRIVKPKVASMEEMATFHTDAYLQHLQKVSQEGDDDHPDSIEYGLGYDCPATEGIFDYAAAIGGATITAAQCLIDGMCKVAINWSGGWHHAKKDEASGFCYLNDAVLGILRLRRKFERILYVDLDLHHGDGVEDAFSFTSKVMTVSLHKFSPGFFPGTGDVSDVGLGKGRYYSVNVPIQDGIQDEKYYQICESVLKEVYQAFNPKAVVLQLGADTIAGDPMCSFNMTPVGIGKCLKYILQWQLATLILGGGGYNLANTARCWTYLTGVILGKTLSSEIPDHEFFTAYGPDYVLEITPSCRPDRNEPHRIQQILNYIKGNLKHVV
Excerpt: as §4

T47D [10] = experiment: Immunoblotting, T47D; type: cell-based, human; settings: 48 h
Procedure: (§2) A quantity of 20 or 40 µg of total protein as well as, from PageRuler Prestained Protein Ladder, 10–180 kDA (Thermo Scientific, Wesel, Germany), were resolved by SDS-Page (12% polyacrylamide gel) and transferred to polyvinylidene fluoride membrane (Millipore Corporation, Billerica, MA, USA). Blots were incubated with primary antibodies against acetylated a -tubulin (Cat. No. sc-23950), a -tubulin (Cat. No. sc-8035) (Santa Cruz Biotechnology, Heidelberg, Germany), acetyl histone h3 (Cat. No. 39140) and histone H3 (Cat. No. NB100-1669), ß-actine (Cat. No. sc-47778), p21 (AF1047), c-myk (Cat. No. MAB3696), APAF1 (Cat. No. MAB868), BIM (Cat. No. NBP1-76936), FOXO1 (Cat. No. C29H4), BCL-2 (Cat. No. AF810), and survivin (Cat. No. AF886). After another one-hour incubation with the appropriate HRP-conjugated secondary antibody, proteins were visualized by Intas Imager (Intas, Göttingen, Germany) using luminol reagent (Santa Cruz Biotechnology, Heidelberg, Germany).

[11] = test system: caspase 3/7 in MCF-7 cells; experiment: Caspase 3/7 activation assay, MCF-7; type: cell-based, human; settings: 0.5 mM or 1 mM, 24 h
Procedure: (§3) To analyze the compound-induced activation of capases 3 and 7, the CellEvent caspase 3/7 green detection reagent (Thermo Scientific, Wesel, Germany) was used according to the manufacturer’s instructions. […] After 24 h incubation, medium was removed, and cells were stained with 50 µL of CellEvent caspase 3/7 green detection reagent (2 µM in PBS supplemented with 5% heat-inactivated FBS). Cells were incubated for 30 min at 37 °C in a humidified incubator before imaging by using the Thermo Fisher ArrayScan XTI high content screening (HCS) system with a 10× magnification (Thermo Scientific). Hoechst 33342 was added for nuclei staining.

[12] = test system: caspase 3/7 in T47D cells; experiment: Caspase 3/7 activation assay, T47D; type: cell-based, human; settings: 0.5 mM or 1 mM, 24 h
Procedure: as §3

MCF-7 [13] = experiment: Immunoblotting, MCF-7; type: cell-based, human; settings: 48 h
Procedure: as §2

[14] = obtained by fitting Lechner et al. source data to a sigmoidal concentration–effect model, read-out: IC50 HDAC 6, Lechner et al.

T2 sequence (P56524 whole entry): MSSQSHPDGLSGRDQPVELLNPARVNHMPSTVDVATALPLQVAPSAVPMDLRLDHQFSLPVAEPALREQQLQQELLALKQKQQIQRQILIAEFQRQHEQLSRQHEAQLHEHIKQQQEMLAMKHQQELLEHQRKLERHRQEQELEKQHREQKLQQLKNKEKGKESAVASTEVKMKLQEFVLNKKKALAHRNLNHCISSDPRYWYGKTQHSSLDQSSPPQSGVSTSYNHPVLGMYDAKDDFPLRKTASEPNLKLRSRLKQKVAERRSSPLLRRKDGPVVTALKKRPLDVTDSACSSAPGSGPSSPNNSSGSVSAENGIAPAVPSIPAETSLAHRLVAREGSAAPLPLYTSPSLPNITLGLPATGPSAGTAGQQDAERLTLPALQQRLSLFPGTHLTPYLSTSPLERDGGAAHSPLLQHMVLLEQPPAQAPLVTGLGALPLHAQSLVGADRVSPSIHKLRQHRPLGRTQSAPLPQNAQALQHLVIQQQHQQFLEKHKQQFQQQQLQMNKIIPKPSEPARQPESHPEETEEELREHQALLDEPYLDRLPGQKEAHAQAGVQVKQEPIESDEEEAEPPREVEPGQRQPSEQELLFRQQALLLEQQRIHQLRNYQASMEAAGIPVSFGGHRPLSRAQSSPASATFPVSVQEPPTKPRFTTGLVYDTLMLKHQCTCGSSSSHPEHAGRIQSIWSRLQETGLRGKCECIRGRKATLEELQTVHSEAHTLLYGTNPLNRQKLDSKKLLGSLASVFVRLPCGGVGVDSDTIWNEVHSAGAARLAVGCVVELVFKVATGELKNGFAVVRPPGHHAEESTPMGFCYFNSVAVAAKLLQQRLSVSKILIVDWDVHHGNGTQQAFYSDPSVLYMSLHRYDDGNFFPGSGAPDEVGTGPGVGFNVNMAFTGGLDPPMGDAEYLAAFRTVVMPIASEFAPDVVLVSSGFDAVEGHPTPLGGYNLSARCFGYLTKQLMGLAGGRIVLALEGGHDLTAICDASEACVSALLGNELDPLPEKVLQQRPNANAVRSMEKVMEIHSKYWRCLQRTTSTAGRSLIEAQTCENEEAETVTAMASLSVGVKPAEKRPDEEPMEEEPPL
Sequence of HDAC2 (Homo sapiens, UniProt Q92769) (Q92769 whole entry): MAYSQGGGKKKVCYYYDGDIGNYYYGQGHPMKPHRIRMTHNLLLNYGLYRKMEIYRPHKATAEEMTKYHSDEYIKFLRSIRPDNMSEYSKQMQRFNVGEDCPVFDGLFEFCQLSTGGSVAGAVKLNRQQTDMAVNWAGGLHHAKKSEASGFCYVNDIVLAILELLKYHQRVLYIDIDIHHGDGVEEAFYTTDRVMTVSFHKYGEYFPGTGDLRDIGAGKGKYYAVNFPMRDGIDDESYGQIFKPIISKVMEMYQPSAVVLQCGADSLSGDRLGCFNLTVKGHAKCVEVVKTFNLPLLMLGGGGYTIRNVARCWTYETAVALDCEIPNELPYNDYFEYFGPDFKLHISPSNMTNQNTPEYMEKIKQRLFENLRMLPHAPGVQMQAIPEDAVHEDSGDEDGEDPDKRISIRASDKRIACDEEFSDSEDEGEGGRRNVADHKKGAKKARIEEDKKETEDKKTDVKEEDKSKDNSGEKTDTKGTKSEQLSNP

Structure (SMILES): O=C(O)CCCCC1CCSS1 (racemic) [rac-α-lipoic acid]
- IC50 (MDA-MB-231): 275 ± 22.5 µM
- IC50 (HDAC6 [1]; read-out: IC50 HDAC 6, IC50 ± SEM, three experiments in duplicates): 15.3 ± 4.6 µM
- IC50 (HDAC2 [2]; read-out: IC50 HDAC 2, IC50 ± SEM, three experiments in duplicates): 208 ± 4.2 µM
- IC50 (HDAC6 [3]; [14]): 191000 nM
- IC50 ([4]; T47D cells, substrate Boc-Lys-AC-AMC, IC50 ± SEM, one experiment in triplicates): 1190 ± 67 µM
- IC50 (HDAC4): 262 ± 37.8 µM
- IC50 (T47D [5]): 373 ± 13.9 µM
- IC50 (HDAC2 [6]): 391 µM
- IC50 (MCF-7 [7]): 454 ± 15.2 µM
- IC50 (HDAC8 [8]): 109 µM
- IC50 (HDAC8 [9]; read-out: IC50 HDAC 8, IC50 ± SEM, three experiments in duplicates): 464 ± 83 µM

Structure (SMILES): O=C(O)CCCCC1CCSS1 (stereo not drawn) [α-lipoic acid]
- expression of BCL-2, T47D (T47D [10]): loss or massive reduction in expression
- caspase activation, MCF-7 [11]: 5–15%
- caspase activation, T47D [12]: 5–15%
- expression of BCL-2, MCF-7 (MCF-7 [13]): loss or massive reduction in expression

Structure (SMILES): O=C(CCCCCCC(=O)Nc1ccccc1)NO [vorinostat]
- IC50 ([4]; Homo sapiens, T47D): 0.79 ± 0.07 µM

Structure (SMILES): O=C(O)CCCCC(S)CCS (racemic)
- IC50 (HDAC6 [1]): 6.48 ± 2.11 µM
- HDAC6 preference (selectivity for HDAC6) (HDAC6 [1]; versus HDAC2, 4 and 8, from Table 1): 8 fold
- IC50 (HDAC2 [2]): 98.1 ± 35.6 µM
- IC50 (HDAC6 [3]; [14]): 1700 nM
- more active than rac-α-lipoic acid at HDAC6, Lechner et al.'s study (HDAC6 [3]): around 100 fold
- IC50 (HDAC6 [3]; read-out: IC50 at HDAC6 as reported by Lechner et al.): ~1000 nM
- IC50 (HDAC4): 177 ± 17.5 µM
- IC50 (HDAC2 [6]): 27.9 µM
- IC50 (HDAC8 [8]): 22.3 µM
- more active than rac-α-lipoic acid at HDAC8, Lechner et al.'s study (HDAC8 [8]): at least 5 fold
- IC50 (HDAC8 [9]): 51.5 ± 10.5 µM
